Data from publication PMC6027433, “Synthesis, Evaluation of Cytotoxicity and Molecular Docking Studies of the 7-Acetamido Substituted 2-Aryl-5-bromo-3-trifluoroacetylindoles as Potential Inhibitors of Tubulin Polymerization” (Pharmaceuticals, 2018).

What was measured:
lung cancer (A549) cells = test: MTT dose response cytotoxicity, A549; type: cell-based; conditions: Homo sapiens, 48 h
Method: (§1) Cells were seeded as described in above. […] The medium was aspirated and replaced with 200 μL fresh medium containing the dilution of the respective test compound. The test sample were added to each well and the plates were incubated for a further 48 h at 37 °C under 5% CO2 atmosphere in a humidified incubator. After this incubation period, the medium was removed and then replaced with 100 μL fresh culture medium containing MTT at a final concentration of 0.5 mg/mL. The 96-well plates were returned to the incubator and incubated for an additional 3 h. The medium was removed and the MTT crystals were solubilized in 100 μL DMSO and the absorbance was measured at 560 nm using a Labsystems Multiwell Scanning spectrophotometer (Thermo Fischer Scientific, Edenvale, South Africa).
(§2) Quantification of live and dead cells for the screening assay was performed using the ImageXpress Micro XLS Widefield Microscope and acquired images analysed using the MetaXpress software and Multi-Wavelength Cell Scoring Application Module. Acquired data was transferred to an EXCEL spreadsheet and relative cell viability was determined using quadruplicate wells for each concentration. Untreated cells were considered to have 100% cell viability (i.e., the mean OD of the untreated wells = 100% viability). Cell viabilities in other test wells were calculated relative to the untreated control and expressed as a percentage. Dose response analysis was performed using the statistical software GraphPad Prism and IC50 values calculated from the concentration-response data using a mathematical Hill function.

[1] = system: cervical cancer (HeLa) cells; test: MTT dose response cytotoxicity, HeLa; type: cell-based; conditions: Homo sapiens, 48 h
Method: as §1, §2

HeLa cells [2] = test: Caspase 8 and 3 activation (immunochemical), HeLa; type: cell-based, human; conditions: 24 h exposure at IC50 values
Method: (§3) Several distinctive mechanisms of cancer cell death such as apoptosis, necrosis, autophagy and cornification have been identified, and these are characterized by differences in morphology and biochemical changes. A major biochemical feature of apoptosis is the activation of caspases, which plays a central role in the morphological changes associated with apoptosis. Caspase activation was determined using immunochemical methods and the antibodies against activated caspase 8 and caspase 3. […] Activated caspase 8 can be used as a convenient indicator of involvement of the extrinsic death receptor pathway of apoptosis. Executioner caspases including caspase 3 are, in turn, activated by the initiator caspases. This protein is either partially or totally responsible for the cleavage of many key proteins such as PARP, DNA protein kinases and retinoblastoma protein [25]. […] This was true for both activated caspase 8 and 3. A more distinct increase was evident with caspase 3 albeit less pronounced than that of 4c and the increase was expected as caspase 3 is activated by initiator caspase including caspase 8, which is a later event in apoptosis. […] Prolonged treatment of the cells with compounds 5e–h for 48 h or more, for example, would probably result in significant effects. We also evaluated compound 5g for potential to induce other key apoptotic biochemical features such as phosphatidylserine (PS) translocation, cell cycle arrest and mitochondrial membrane depolarization.
(§4) Compounds 4c and 5g were selected for mechanism studies and these test compounds were reconstituted in dimethyl sulphoxide (DMSO) to give a final concentration of 40 mM. Samples were stored at 4 °C until required. […]
(§5) Quantification of live and dead cells for the assay was performed using the ImageXpress Micro XLS Widefield Microscope and acquired images analysed using the MetaXpress software and Multi-Wavelength Cell Scoring Application Module and the Cell Cycle Module. Acquired data was transferred to an EXCEL spreadsheet and data was analysed and processed.

A549 cells [3] = test: Caspase 8 and 3 activation (immunochemical), A549; type: cell-based, human; conditions: 24 h exposure at IC50 values
Method: as §3, §4, §5

HeLa cells [4] = test: Other apoptotic features (PS translocation, cell cycle arrest, mitochondrial membrane depolarization), HeLa; type: cell-based, human; conditions: after 24 h (data not included)
Method: (§6) Several distinctive mechanisms of cancer cell death such as apoptosis, necrosis, autophagy and cornification have been identified, and these are characterized by differences in morphology and biochemical changes. A major biochemical feature of apoptosis is the activation of caspases, which plays a central role in the morphological changes associated with apoptosis. Caspase activation was determined using immunochemical methods and the antibodies against activated caspase 8 and caspase 3. […] Activated caspase 8 can be used as a convenient indicator of involvement of the extrinsic death receptor pathway of apoptosis. Executioner caspases including caspase 3 are, in turn, activated by the initiator caspases. This protein is either partially or totally responsible for the cleavage of many key proteins such as PARP, DNA protein kinases and retinoblastoma protein [25]. […] This was true for both activated caspase 8 and 3. A more distinct increase was evident with caspase 3 albeit less pronounced than that of 4c and the increase was expected as caspase 3 is activated by initiator caspase including caspase 8, which is a later event in apoptosis. […] We also evaluated compound 5g for potential to induce other key apoptotic biochemical features such as phosphatidylserine (PS) translocation, cell cycle arrest and mitochondrial membrane depolarization.

A549 cells [5] = test: Other apoptotic features (PS translocation, cell cycle arrest, mitochondrial membrane depolarization), A549; type: cell-based, human; conditions: after 24 h (data not included)
Method: as §6

## CC(=O)Nc1cc(Br)cc2c(C(=O)C(F)(F)F)c(-c3cccc(Cl)c3)[nH]c12 [Compound 5g, N-[5-Bromo-2-(3-chlorophenyl)-3-trifluoroacetyl-1H-indol-7-yl]acetamide]
Lung cancer (A549) cells
  IC50: 2.72 ± 0.43 µM
[1]
  IC50: 8.74 ± 0.94 µM
HeLa cells [2]
  Caspase 8 and 3 activation (% change in mean integrated fluorescence intensity of the untreated control): decrease
A549 cells [3]
  Caspase 8 and 3 activation (% change in mean integrated fluorescence intensity of the untreated control): expected increase
HeLa cells [4]
  PS translocation, cell cycle arrest and mitochondrial membrane depolarization: failed to induce
A549 cells [5]
  PS translocation, cell cycle arrest and mitochondrial membrane depolarization: failed to induce
